Several values for one entry are separate records, joined by “and”; a condition that tells them apart may be missing. Equal values may be shown once.
System: 463943-066-T-J2-PDC complex spheroid growth
Experiment: Anticancer human tumor 463943-066-T-J2-PDC patient-derived colon adenocarcinoma cell line growth inhibition [Asc]
Details: for viability, T/C: stronger effect = lower value
Method in brief: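 Complex spheroids combining tumor cells with HUVEC endothelial cells and human MSCs, at 37 degrees C, 5% CO2; agents tested alone or combined, half-log dilutions from at or near clinical Cmax, or 10 microM if Cmax unknown.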
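Note: compound exposure lasted 7 days.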
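Throughout, for viability, T/C: 100% = DMSO vehicle control wells.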

## Cn1ncnc1[C@H]1c2n[nH]c(=O)c3cc(F)cc(c23)N[C@@H]1c1ccc(F)cc1 + CCN1C(C(=O)NC23CCC(C(=O)O)(CC2)CC3)C(c2cccc(Cl)c2F)C2(C(=O)Nc3cc(Cl)ccc32)C12CCCCC2
Curve of first compound, second compound 0.00949 µM
  IC50: > 0.1 µM
Curve of first compound, second compound 0.03 µM
  IC50: > 0.1 µM
Curve of first compound, second compound 0.0949 µM
  IC50: > 0.1 µM
Curve of first compound, second compound 0.3 µM
  IC50: > 0.1 µM
Curve of first compound, second compound 0.949 µM
  IC50: > 0.1 µM
Curve of first compound, second compound 3 µM
  IC50: > 0.1 µM
Second compound 0.00949 µM, first compound 0.000316 µM
  viability, T/C: 102%
Second compound 0.00949 µM, first compound 0.001 µM
  viability, T/C: 96.2%
Second compound 0.00949 µM, first compound 0.00316 µM
  viability, T/C: 106%
Second compound 0.00949 µM, first compound 0.01 µM
  viability, T/C: 97.2%
Second compound 0.00949 µM, first compound 0.0316 µM
  viability, T/C: 100%
Second compound 0.00949 µM, first compound 0.1 µM
  viability, T/C: 88.1%
Second compound 0.03 µM, first compound 0.000316 µM
  viability, T/C: 98.7%
Second compound 0.03 µM, first compound 0.001 µM
  viability, T/C: 98.6%
Second compound 0.03 µM, first compound 0.00316 µM
  viability, T/C: 95.7%
Second compound 0.03 µM, first compound 0.01 µM
  viability, T/C: 98.2%
Second compound 0.03 µM, first compound 0.0316 µM
  viability, T/C: 96.5%
Second compound 0.03 µM, first compound 0.1 µM
  viability, T/C: 90.1%
Second compound 0.0949 µM, first compound 0.000316 µM
  viability, T/C: 101%
Second compound 0.0949 µM, first compound 0.001 µM
  viability, T/C: 89.1%
Second compound 0.0949 µM, first compound 0.00316 µM
  viability, T/C: 89.8%
Second compound 0.0949 µM, first compound 0.01 µM
  viability, T/C: 89.6%
Second compound 0.0949 µM, first compound 0.0316 µM
  viability, T/C: 92.8%
Second compound 0.0949 µM, first compound 0.1 µM
  viability, T/C: 79.1%
Second compound 0.3 µM, first compound 0.000316 µM
  viability, T/C: 85.4%
Second compound 0.3 µM, first compound 0.001 µM
  viability, T/C: 85.3%
Second compound 0.3 µM, first compound 0.00316 µM
  viability, T/C: 85.7%
Second compound 0.3 µM, first compound 0.01 µM
  viability, T/C: 85.6%
Second compound 0.3 µM, first compound 0.0316 µM
  viability, T/C: 81.5%
Second compound 0.3 µM, first compound 0.1 µM
  viability, T/C: 79%
Second compound 0.949 µM, first compound 0.000316 µM
  viability, T/C: 75.4%
Second compound 0.949 µM, first compound 0.001 µM
  viability, T/C: 76.1%
Second compound 0.949 µM, first compound 0.00316 µM
  viability, T/C: 72.5%
Second compound 0.949 µM, first compound 0.01 µM
  viability, T/C: 77.9%
Second compound 0.949 µM, first compound 0.0316 µM
  viability, T/C: 75.4%
Second compound 0.949 µM, first compound 0.1 µM
  viability, T/C: 76.3%
Second compound 3 µM, first compound 0.000316 µM
  viability, T/C: 71.1%
Second compound 3 µM, first compound 0.001 µM
  viability, T/C: 70.2%
Second compound 3 µM, first compound 0.00316 µM
  viability, T/C: 75.3%
Second compound 3 µM, first compound 0.01 µM
  viability, T/C: 67.4%
Second compound 3 µM, first compound 0.0316 µM
  viability, T/C: 73.2%
Second compound 3 µM, first compound 0.1 µM
  viability, T/C: 74%

## NC1CCC(NC2CC2c2ccccc2)CC1 (stereo unspecified)
Compound 0.000316 µM
  viability, T/C: 89.8% and 86.8%
Compound 0.001 µM
  viability, T/C: 94.3% and 87.5%
Compound 0.00316 µM
  viability, T/C: 87.3% and 94.4%
Compound 0.01 µM
  viability, T/C: 92.6% and 95.7%
Compound 0.0316 µM
  viability, T/C: 94.2% and 88.1%
Compound 0.1 µM
  viability, T/C: 86.1% and 94.9%
Curve of compound
  IC50: > 0.1 µM

## C=C(F)C(=O)N1CCN(c2nc(OCC3CCCN3C)nc3c2CCN(c2cccc4cccc(Cl)c24)C3)CC1CC#N (stereo unspecified) + Cc1c(S(C)(=O)=O)c(-c2cc(F)cc(N3CCN(c4ccc(NS(=O)(=O)c5ccc(NC(CCN6CCC(C(=O)OCCCP(=O)(O)O)CC6)CSc6ccccc6)c(S(=O)(=O)C(F)(F)F)c5)cc4)CC3)c2)c(-c2ccc(Cl)cc2)n1C(C)C
Curve of first compound, second compound 0.0316 µM
  IC50: 5.64 µM
Curve of first compound, second compound 0.1 µM
  IC50: 4.89 µM
Curve of first compound, second compound 0.316 µM
  IC50: 3.88 µM
Curve of first compound, second compound 1 µM
  IC50: 2.3 µM
Curve of first compound, second compound 3.16 µM
  IC50: 1.17 µM
Curve of first compound, second compound 10 µM
  IC50: < 0.0316 µM
Second compound 0.0316 µM, first compound 0.0316 µM
  viability, T/C: 92.4%
Second compound 0.0316 µM, first compound 0.1 µM
  viability, T/C: 95.5%
Second compound 0.0316 µM, first compound 0.316 µM
  viability, T/C: 95.9%
Second compound 0.0316 µM, first compound 1 µM
  viability, T/C: 106%
Second compound 0.0316 µM, first compound 3.16 µM
  viability, T/C: 93.1%
Second compound 0.0316 µM, first compound 10 µM
  viability, T/C: 7.35%
Second compound 0.1 µM, first compound 0.0316 µM
  viability, T/C: 98.2%
Second compound 0.1 µM, first compound 0.1 µM
  viability, T/C: 93.5%
Second compound 0.1 µM, first compound 0.316 µM
  viability, T/C: 90.8%
Second compound 0.1 µM, first compound 1 µM
  viability, T/C: 98.4%
Second compound 0.1 µM, first compound 3.16 µM
  viability, T/C: 79.5%
Second compound 0.1 µM, first compound 10 µM
  viability, T/C: 1.47%
Second compound 0.316 µM, first compound 0.0316 µM
  viability, T/C: 92%
Second compound 0.316 µM, first compound 0.1 µM
  viability, T/C: 85.7%
Second compound 0.316 µM, first compound 0.316 µM
  viability, T/C: 87%
Second compound 0.316 µM, first compound 1 µM
  viability, T/C: 85.7%
Second compound 0.316 µM, first compound 3.16 µM
  viability, T/C: 60.8%
Second compound 0.316 µM, first compound 10 µM
  viability, T/C: 0.26%
Second compound 1 µM, first compound 0.0316 µM
  viability, T/C: 80.3%
Second compound 1 µM, first compound 0.1 µM
  viability, T/C: 80.4%
Second compound 1 µM, first compound 0.316 µM
  viability, T/C: 72.5%
Second compound 1 µM, first compound 1 µM
  viability, T/C: 72.4%
Second compound 1 µM, first compound 3.16 µM
  viability, T/C: 41.8%
Second compound 1 µM, first compound 10 µM
  viability, T/C: 0.2%
Second compound 3.16 µM, first compound 0.0316 µM
  viability, T/C: 62.4%
Second compound 3.16 µM, first compound 0.1 µM
  viability, T/C: 58.4%
Second compound 3.16 µM, first compound 0.316 µM
  viability, T/C: 56.4%
Second compound 3.16 µM, first compound 1 µM
  viability, T/C: 54.5%
Second compound 3.16 µM, first compound 3.16 µM
  viability, T/C: 23.1%
Second compound 3.16 µM, first compound 10 µM
  viability, T/C: 0.22%
Second compound 10 µM, first compound 0.0316 µM
  viability, T/C: 46.1%
Second compound 10 µM, first compound 0.1 µM
  viability, T/C: 47.7%
Second compound 10 µM, first compound 0.316 µM
  viability, T/C: 47.4%
Second compound 10 µM, first compound 1 µM
  viability, T/C: 41.7%
Second compound 10 µM, first compound 3.16 µM
  viability, T/C: 16.4%
Second compound 10 µM, first compound 10 µM
  viability, T/C: 0.26%

Source: PubChem BioAssay AID1963422 (Molecular Pharmacology Branch, DTP, NCI, 2024)
